Test in all cases: NCI anticancer screen, dose series, 48 h
The test system of test [1] is SK-OV-3 ovarian.
For test [2], the system named is NCI-H522 lung.
Test [3] deals with OVCAR-8 ovarian.
Test [4] concerns SNB-19 CNS.
Test [5] relates to HCT-15 colon.
Test [6] deals with T-47D breast.
Test [7] deals with SF-295 CNS.
In test [8] the test system is OVCAR-4 ovarian.
In test [9] the test system is SK-MEL-2 melanoma.
Test [10] deals with HOP-92 NSCLC.
The test system of test [11] is MOLT-4 leukemia.
In test [12] the test system is DU-145 prostate.
The subject of test [13] is CCRF-CEM leukemia.
Test [14] relates to IGROV1 ovarian.
Test [15] relates to CAKI-1 renal.
Test [16] has as its system SK-MEL-5 melanoma.
For test [17], the system named is MDA-MB-435.
Test [18] relates to UO-31 renal.
The subject of test [19] is SR leukemia.

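Cultured in 96-well plates, cells were exposed to test compound for 48 hours across five concentrations. TGI: total growth inhibition.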

For `CCCCNc1c(CN)cnc2cc(Cl)ccc12`, the TGI in test [1] worked out at 31.6 µM; in test [2], 34.5 µM; in [3], 33.8 µM; in test [4] it was 51 µM; in test [5], 33.1 µM; in test [6] it was 44.3 µM. Moreover, the TGI worked out at 29.8 µM in test [7]; 40.1 µM in test [8]; 33.3 µM in test [9]; 35.1 µM in test [10]; 36.5 µM in test [11]; 86.8 µM in test [12]. Further, the TGI in test [13] stood at 18.7 µM; in [14] it was 34.4 µM; in [15], 65.7 µM; in [16], 29.3 µM; in test [17], 35 µM.
In the case of `CC1=C(O)C(=O)C[C@]2(C)[C@H]3CC=C4[C@@H]5CC(C)(C)CC[C@@H]5C(=O)[C@H](O)[C@@]4(C)[C@]3(C)CC[C@@H]12`, the TGI in [1], in [2], in test [3], in test [4], in test [5] and in test [6] was greater than 50 µM each time. In addition, the TGI in test [7] was greater than 50 µM; in test [8] it was greater than 50 µM; in test [9] it was greater than 50 µM; in test [10] it was 28.5 µM; in [11] it was greater than 50 µM; in [12], greater than 50 µM. For the same compound, the TGI in test [13], in [18], in test [14], in test [15], in [16] and in test [17] was greater than 50 µM each time.
As to `O=C1NC(=S)NC(=O)C1C(c1ccc([N+](=O)[O-])cc1)C1C(=O)NC(=S)NC1=O`, the TGI in test [2], in test [3], in test [4], in [5], in test [6] and in test [7] was greater than 100 µM throughout. For the same compound, the TGI in [8], in [9], in [10], in test [11], in test [12] and in test [13] was greater than 100 µM each time. In addition, the TGI in [18], in test [14], in test [15], in [16] and in [17] was greater than 100 µM throughout.
On to `O=C1c2cc3c(cc2CC12Cc1cc4c(cc1C2=O)CCC4)CCC3`, for which the TGI in [1], in test [2], in [3], in test [4], in test [5] and in [6] was greater than 100 µM each time. Moreover, the TGI in [7], in [9], in test [11], in test [12], in test [13] and in test [19] was greater than 100 µM in each case. For the same compound, the TGI in test [18], in [14], in test [15], in [16] and in [17] was greater than 100 µM in each case.
Regarding `c1cc(CSP234N5CCN2CCN3CCN4CC5)ccc1CSP123N4CCN1CCN2CCN3CC4`, the TGI in test [2], in test [3], in [4], in [5], in [6] and in [7] was greater than 100 µM throughout. Moreover, the TGI in test [8], in [9], in [10], in test [11], in test [12] and in [13] was greater than 100 µM throughout. For the same compound, the TGI in test [18], in test [14], in test [15], in [16] and in [17] was greater than 100 µM throughout.
Take `CN1CCN(c2cc3c(cc2F)c(=O)c(C(=O)O)cn3C2CC2)CC1CC#N` (stereo not given): the TGI in test [1], in test [3], in test [4], in [5], in [6] and in [7] was greater than 100 µM in each case. The TGI in test [8], in [11], in [12], in test [13], in test [19] and in test [18] was greater than 100 µM in each case. The TGI in [14], in test [15], in test [16] and in [17] was greater than 100 µM in each case.
As for `Cc1ccccc1NC(=O)C(=O)CC(=O)c1sc(Nc2ccccc2[N+](=O)[O-])nc1C`, the TGI is 58.7 µM in test [1]; 86.1 µM in [2]; greater than 100 µM in test [3]; greater than 100 µM in test [4]; greater than 100 µM in test [5]; 68.1 µM in test [6]. Further, the TGI is 66.7 µM in test [7]; 52.9 µM in [8]; greater than 100 µM in test [9]; 59.6 µM in [10]; greater than 100 µM in test [11]; greater than 100 µM in test [12]. Also, the TGI in test [18] is 32.4 µM; in [14], greater than 100 µM; in [15] it was greater than 100 µM; in [16], greater than 100 µM; in test [17] it was greater than 100 µM.
Regarding `CCN1CN(c2ccccc2)C2(CCN(CCCSc3ccc(F)cc3)CC2)C1=O`, the TGI is 33.2 µM in test [1]; 30 µM in test [2]; 30.5 µM in [3]; 24.3 µM in test [4]; 24.9 µM in [5]; 17.2 µM in test [6]. Further, the TGI turned out to be 25.7 µM in [7]; 23.7 µM in test [11]; 17.9 µM in test [12]; 24.6 µM in test [13]; 36.5 µM in test [19]; 18.1 µM in test [18]. The TGI was determined as 19.7 µM in test [14], 35.7 µM in test [15], 13.8 µM in test [16] and 27.3 µM in test [17].

The values above are taken from PubChem BioAssay (NCI).
